From paper PMC12461331, “Screening of Medicines for Malaria Venture Open Boxes Identifies Potent SARS-CoV‑2 Papain-like Protease (PL^pro) Inhibitors” (ACS Omega, 2025)
≈ marks a conversion by molar mass, not a printed value. Where “and” joins values, the source holds several entries; their conditions need not be identical. Equal values may be shown once. Where a name gives a salt, the structure may show the parent alone. Read-outs that look alike come from different tables or passages of the source.

What was measured:
Plasma stability = conditions: female, BALB/c, mouse, plasma, pH 7.4
[1] = female, BALB/c, mouse, 1 h, 2 μM, pH 7.4
physchem [2] = conditions: 25 °C, kinetic from dmso stock
in vitro [3] = conditions: CD1, mouse, microsomes, pH 7.4
in vitro [4] = conditions: PAMPA
in vitro [5] = conditions: human, microsomes, pH 7.4
physchem [6] = conditions: pH 7.4
[7] = Mouse liver microsomal stability assay; conditions: CD1, mouse, liver microsomes, pH 7.4
[8] = Human liver microsomal stability assay; conditions: human, liver microsomes, pH 7.4
PL^pro = PL^pro (Severe acute respiratory syndrome coronavirus 2, UniProt P0DTD1); conditions: 20 μM compound, 5 μM enzyme, average of triplicates with SD
SARS-CoV-2 [9] = conditions: for Data Mode: Hela-ACE2 % Positive SARS-CoV-2; for S0 / Sinf / nHill: Hela-ACE2 % Positive SARS-CoV-2, curve fit
HeLa-ACE2 cells [10] = assay: cells; conditions: Homo sapiens; for AC50: HeLa-ACE2, read-out: Log AC50 (converted)
HeLa-ACE2 cells [11] = conditions: for Data Mode / S0 / Sinf / nHill: Hela-ACE2 CoV-2 Total Cell count; for S0 / Sinf / nHill: curve fit; for HeLa-ACE2 Total Cell Efficacy (Sinf, note + or -): infected HeLa-ACE2 total cell count
in vitro [12] = conditions: human, uninfected HeLa-ACE2 cells
[13] = system: uninfected HeLa-ACE2 cells; conditions: Hela-ACE2 Uninfected Cell Toxicity; for S0 / Sinf / nHill: curve fit; for qAC50: relation in column qAC50 Mode, unit not given
SARS-CoV-2 [14] = assay: microbe, parasite or virus in culture; conditions: for AC50: Severe acute respiratory syndrome coronavirus 2, HeLa-ACE2, read-out: Log AC50 (converted)
[15] = HeLa-ACE2, read-out: HeLa-ACE2 Total cells EC50
[16] = uninfected HeLa-ACE2 CC50, supplement summary
[17] = uninfected HeLa-ACE2 CC50, uninfected HeLa-ACE2 cells, average of triplicates
[18] = Severe acute respiratory syndrome coronavirus 2, HeLa-ACE2, read-out: CoV-2 EC50
[19] = Severe acute respiratory syndrome coronavirus 2, HeLa-ACE2, read-out: qAC50

Compound	half-life at 2 μM (Plasma stability)	plasma stability remaining 60 min [1]	solubility kinetic at 24 h (physchem [2]; pH 2, aqueous buffer)	solubility kinetic at 24 h (physchem [2]; pH 7.4, aqueous buffer)	microsomal CLint at 0.5 μM (in vitro [3])	Papp at 5 h, 10 μM (in vitro [4])	microsomal CLint at 0.5 μM (in vitro [5])	chromatographic logD (physchem [6])	half-life at 0.5 μM [7]	half-life at 0.5 μM [8]	ΔT m (PL^pro)	CoV2 Efficacy (delta S0:Sinf) (SARS-CoV-2 [9]; HeLa-ACE2)	Data Mode (SARS-CoV-2 [9])	S0 (SARS-CoV-2 [9])	Sinf (SARS-CoV-2 [9])	nHill (SARS-CoV-2 [9])	EC50 (HeLa-ACE2 cells [10]; [15])	EC50 (HeLa-ACE2 cells [10]; HeLa-ACE2, read-out: qAC50)	Data Mode (HeLa-ACE2 cells [11])	CC50 at 24 h (in vitro [12]; [16])	further results
COc1ccc(CNC(=O)[C@@H]2CCN([C@@H](C)c3cccc4ccccc34)C2)cc1 [Compound 15]	19.3 h	79.94%	> 23.9 µg/mL	> 19.1 µg/mL	742 µL/min/mg	0.46 ×10⁻⁶ cm/s	173 µL/min/mg	4.24	3.74 min	16.1 min	0.40 ± 0.06 °C	–	–	–	–	–	–	–	–	–	–
COc1ccc(CNC(=O)[C@H]2CCN([C@H](C)c3cccc4ccccc34)C2)cc1 [Compound 16]	28.9 h	88.71%	> 24.6 µg/mL	> 19.5 µg/mL	267 µL/min/mg	0.53 ×10⁻⁶ cm/s	254 µL/min/mg	4.24	10.4 min	10.9 min	0.40 ± 0.08 °C	–	–	–	–	–	–	–	–	–	–
C[C@H](c1cccc2ccccc12)N1CCC(C(=O)NCc2ccc(Cl)cc2)CC1 [Compound 12]	38.5 h	89.75%	> 24.1 µg/mL	10.2 µg/mL (≈ 25.1 µM)	226 µL/min/mg	0.25 ×10⁻⁶ cm/s	97.2 µL/min/mg	4.7	12.3 min	28.5 min	6.6 °C and 6.6 ± 0.2 °C	104.049	decreasing	4.049	-100	4	> 9610 nM	> 9610 nM	inactive	14500 nM	SI (average CC50/average EC50) (SARS-CoV-2 [9]; HeLa-ACE2): 4.8; SI (average CC50/average EC50) (SARS-CoV-2 [9]; supplement summary): 4.873; AC50 at 24 h (in vitro [12]): 14500 nM; CC50 at 24 h (in vitro [12]; [17]): 14400 ± 200 nM; Data Mode [13]: decreasing; S0 [13]: 0.4208; Sinf [13]: -100; nHill [13]: 3.064; qAC50 [13]: 1.447e-5; EC50 (SARS-CoV-2 [14]; [18]): 2970 nM; AC50 (SARS-CoV-2 [14]): 2970 nM; EC50 (SARS-CoV-2 [14]; Severe acute respiratory syndrome coronavirus 2, HeLa-ACE2, read-out: SARS-CoV-2 EC50): 2900 ± 200 nM; inhibition at 9.61 µM (SARS-CoV-2 [14]; Severe acute respiratory syndrome coronavirus 2, HeLa-ACE2, read-out: inhibition in the highest concentration tested): > 50%; EC50 (SARS-CoV-2 [14]; [19]): 2970 nM
COc1ccc(CC(=O)NC2CCN([C@@H](C)c3cccc4ccccc34)CC2)cc1 [Compound 7]	116 h	95.21%	> 24.8 µg/mL	> 15.9 µg/mL	378 µL/min/mg	1.03 ×10⁻⁶ cm/s	205 µL/min/mg	4.27	7.33 min	13.5 min	–	–	–	–	–	–	–	–	–	–	–
C[C@@H](c1cccc2ccccc12)N1CCC(C(=O)NCc2ccncc2)CC1 (racemic) [Compound 10]	–	97.19%	> 17.3 µg/mL	> 31 µg/mL	110 µL/min/mg	1.01 ×10⁻⁶ cm/s	75.6 µL/min/mg	3.32	25.3 min	36.7 min	4.65 °C and 4.6 ± 0.1 °C	103.533	decreasing (weakly active)	3.533	-100	4	> 9610 nM	> 9610 nM	inactive	> 39800 nM	CC50 at 24 h (in vitro [12]; [17]): > 39800 nM; Data Mode [13]: inactive; qAC50 [13]: > 3.984e-5; AC50 (SARS-CoV-2 [14]): > 9610 nM; EC50 (SARS-CoV-2 [14]; Severe acute respiratory syndrome coronavirus 2, HeLa-ACE2, read-out: SARS-CoV-2 EC50, HeLa-ACE2 cells, average of triplicates): > 9610 nM; EC50 (SARS-CoV-2 [14]; Severe acute respiratory syndrome coronavirus 2, HeLa-ACE2, read-out: qAC50, Hela-ACE2 % Positive SARS-CoV-2, relation in column qAC50 Mode, unit inferred): > 9610 nM
Cc1cccc(/C=N/Nc2cc(N3CCOCC3)nc(OCCc3ccccn3)n2)c1 [Apilimod, reference compound]	–	–	–	–	–	–	–	–	–	–	–	96.257	decreasing	0.02088	-96.2358	1.796	> 2400 nM	> 2400 nM	inactive	5700 nM	SI (average CC50/average EC50) (SARS-CoV-2 [9]; supplement summary): 222.534; AC50 at 24 h (in vitro [12]): 5700 nM; Data Mode [13]: decreasing; S0 [13]: -7.369; Sinf [13]: -100; nHill [13]: 1.671; qAC50 [13]: 5.705e-6; EC50 (SARS-CoV-2 [14]; [18]): 26 nM; AC50 (SARS-CoV-2 [14]): 25.6 nM; EC50 (SARS-CoV-2 [14]; [19]): 25.6 nM
COc1ccc(CNC(=O)[C@@H]2CCN([C@H](C)c3cccc4ccccc34)C2)cc1 (stereo in doubt) [Compound 18]	7.7 h	56.69%	> 25.2 µg/mL	> 19.8 µg/mL	582 µL/min/mg	0.56 ×10⁻⁶ cm/s	212 µL/min/mg	4.24	4.76 min	13.1 min	–	–	–	–	–	–	–	–	–	–	–
CCC(CC)COC(=O)[C@H](C)N[P@](=O)(OC[C@H]1O[C@@](C#N)(c2ccc3c(N)ncnn23)[C@H](O)[C@@H]1O)Oc1ccccc1 [Remdesivir, reference compound]	–	–	–	–	–	–	–	–	–	–	–	101.769	decreasing	1.9121	-99.8572	1.898	102 nM	102 nM	increasing	2150 nM	SI (average CC50/average EC50) (SARS-CoV-2 [9]; supplement summary): 22.589; AC50 (HeLa-ACE2 cells [10]): 102 nM; S0 (HeLa-ACE2 cells [11]): -15.3429; Sinf (HeLa-ACE2 cells [11]): 34.6571; nHill (HeLa-ACE2 cells [11]): 2.142; HeLa-ACE2 Total Cell Efficacy (Sinf, note + or -) (HeLa-ACE2 cells [11]): 2.142; AC50 at 24 h (in vitro [12]): 2150 nM; Data Mode [13]: decreasing; S0 [13]: 13.7985; Sinf [13]: -53.8717; nHill [13]: 1.539; qAC50 [13]: 2.1501e-6; EC50 (SARS-CoV-2 [14]; [18]): 95 nM; AC50 (SARS-CoV-2 [14]): 95.2 nM; EC50 (SARS-CoV-2 [14]; [19]): 95.2 nM
COc1ccc(C[C@H](N)C(=O)N[C@H]2[C@@H](O)[C@H](n3cnc4c(N(C)C)ncnc43)O[C@@H]2CO)cc1 [Puromycin dihydrochloride, reference compound]	–	–	–	–	–	–	–	–	–	–	–	109.643	decreasing	10.0167	-99.6259	4	1140 nM	1140 nM	decreasing	578 nM	SI (average CC50/average EC50) (SARS-CoV-2 [9]; supplement summary): 1.518; AC50 (HeLa-ACE2 cells [10]): 1140 nM; S0 (HeLa-ACE2 cells [11]): -17.6223; Sinf (HeLa-ACE2 cells [11]): -98.1852; nHill (HeLa-ACE2 cells [11]): 4; HeLa-ACE2 Total Cell Efficacy (Sinf, note + or -) (HeLa-ACE2 cells [11]): 4.000; AC50 at 24 h (in vitro [12]): 578 nM; Data Mode [13]: decreasing; S0 [13]: -1.04; Sinf [13]: -99.1112; nHill [13]: 3.073; qAC50 [13]: 5.784e-7; EC50 (SARS-CoV-2 [14]; [18]): 381 nM; AC50 (SARS-CoV-2 [14]): 381 nM; EC50 (SARS-CoV-2 [14]; [19]): 381 nM
COc1ccc(CNC(=O)C2CCN(Cc3cccc4ccccc34)CC2)cc1 [Compound 1]	4.44 h	43.36%	> 24.9 µg/mL	> 21.8 µg/mL	146 µL/min/mg	1 ×10⁻⁶ cm/s	117 µL/min/mg	4.18	18.9 min	23.7 min	0.40 ± 0.08 °C	–	–	–	–	–	–	–	–	–	–
